In patent US20240287081A1, “PERFLUOROALKANE SUBSTITUTED PYRAZOLO[3,4-D]PYRIMIDIN AND PYRROLO[2,3-D]PYRIMIDIN COMPOUNDS AND USES THEREOF” (ICAHN SCHOOL OF MEDICINE AT MOUNT SINAI, priority 2021, published 2024):
Entries after “also recorded” stand apart in the source; their conditions may differ.

Legend:
ptc>dRet^M955T flies = experiment: Fly rescue assay (Drosophila MTC model ptc>dRet^M955T); type: in vivo; settings: compound in fly food; for rescue (percent viability of adult flies, adults/pupae×100): 13 d at 25° C.
Procedure: Kinase-mutated fly stocks were obtained from Bloomington Drosophila Stock Center (BDSC; Bloomington, IN). The active mutant form of Drosophila Ret (dRet^955T) carries an M955T mutation corresponding to the M918T mutation commonly reported for multiple endocrine neoplasia (MEN) type 2B patients12,14,16,34. The ptc-gal4, UAS-GFP;UAS-dRet^M955T/SM5tub-gal80-TM6B transgenic flies were prepared according to standard protocols and crossed with non-transgenic w-flies (BDSC) to generate ptc-gal4, UAS-GFP; UAS-dRet^M955T(ptc>dRet^M955T) flies for chemical screening.
All drugs were synthesized in-house. All compounds were dissolved in DMSO (Sigma-Aldrich; St. Louis, MO) and mixed with semi-defined fly medium (BDSC) to make drug food (0.1% final DMSO concentration). For drug screening, ptc>dRet^M955T embryos were raised until adulthood on drug food for 13 d at 25° C. The number of empty pupal cases (i.e., adults) ? that of total pupal cases (P) to determine % viability. Fly randomization was used throughout the assays.
In this model, compounds are assessed based on their ability to suppress oncogenic Ret^M955T-induced tumors, which can be quantified as ‘rescue’ from lethality. […] The baseline viability of ptc>Ret^1955T flies was calibrated to zero, which creates a high bar for rescue but also reduces false-positive hits. Hundreds of flies are tested per condition (typical n values are […] administered through fly food.

[1] = system: panel of 468 purified human kinases; experiment: In vitro kinase percent inhibition, panel of 468 kinases (DiscoverX); type: binding; settings: 1 μM; for binding to wild-type RET and RET^M918T, in words: kinase panel; for binding profile / selectivity across the kinome, in words: panel of 468 kinases
Procedure: Compounds were assayed against a panel of 468 purified human kinases (DiscoverX) to measure percentage inhibition values and derive kinome profiles (FIGS. 3B-3C). All compounds were screened at 1 μM, using two experimental replicates to determine percent inhibition values. Detailed procedures for kinase reactions and assay formats are described at http://www.discoverx.com. Raw data sets for individual compounds were filtered based on the variance of experimental replicates (cutoff=average variance+standard deviation).

RET (WT and M918T) = experiment: NanoBRET cell based target engagement assay; settings: RET-Nluc in HEK 293T cells; for cellular IC50 against RET, ranking in words: pyrazolo- and pyrrolopyrimidine series
Procedure: Assays were completed in duplicate. […] FIG. 8D is a graph of the cell-based target engagement for the indicated compounds against wild-type and M918T RET. IC50 values were determined based on 8-point titration curves of free ligand. Competition assays were completed in technical triplicate against full-length human RET-Nluc expressed in 293T cells, complexed with an active-site fluorescent tracer.
In this assay, a bioluminescence resonance energy transfer (BRET) signal is generated between nanoLuciferase tagged RET (expressed in HEK 293T cells) and an active-site based fluorescent tracer. […] Using this assay, in vivo binding was determined for a series of compounds against mutant (M918T) and wild-type RET (FIG. 8D).

[2] = system: HCC tumor organoids, SR (sorafenib resistant); experiment: 3D HCC tumor organoid viability, SR model; type: cell-based; settings: 5.0 μM, viability three days post drug administration
Procedure: (§1) For assays in HCC tumor organoids, 96 well plates were first coated with a 50:50 solution of basal media:Matrigel ([…]), which polymerized for 15 minutes at 37° C. Tumor organoids were taken out of Matrigel, broken, and washed. Tumor organoids were seeded at 1,000 cells per well and were treated the following day with single doses of drugs in technical triplicate. Final DMSO concentrations were kept below 0.5%. Cell viability was measured three days post drug administration with either luminescence from CellTiter-Glo or absorbance at 560 and 590 nm from resazurin. Viability data was analyzed by normalizing individual drug-treated well values to DMSO-treated wells (BC=B-Catenin; SR=sorafenib resistant). Results of 3D HCC cell line data for pyrazolo- and pyrrolopyrimidine compounds at 0.5 μm (FIGS. 22A-F), 0.05 μm (FIGS. 23A-F), and 5.0 μm (FIGS. 24A-F) were obtained. […] In the BC model, at 5.0 μM, the top ten compounds were: APS-8-100-4, APS-8-52-3, APS-8-51-4, APS-7-25-2, APS-8-100-3, APS-8-51-3, APS-8-50-4, APS-8-52-4, and APS-7-38. In the SR model, at 5.0 μM, the top ten compounds were: APS-8-51-3, APS-8-50-4, APS-8-51-4, APS-8-52-3, APS-8-50-3, APS-7-52-2, APS-8-52-4, APS-7-52-1, and APS-8-100-4.

[3] = system: HCC tumor organoids, BC (B-Catenin); experiment: 3D HCC tumor organoid viability, BC model; type: cell-based; settings: 5.0 μM, viability three days post drug administration
Procedure: as §1

SMILES: CNC(=O)c1cc(Oc2ccc(NC(=O)Nc3ccc(C(C)(F)C(C)(C)C)cc3)cc2)ccn1 (stereo not drawn) [compound 44]
- rescue (percent viability of adult flies, adults/pupae×100) (ptc>dRet^M955T flies; baseline viability 0%): 55%

SMILES: CC(C)n1nc(-c2ccc(NC(=O)Nc3ccc(C(F)(C(F)(F)F)C(F)(F)C(F)(F)F)cc3)cc2)c2c(N)ncnc21 (stereo not drawn) [APS-8-6-2, 1-(4-(4-Amino-1-isopropyl-1H-pyrazolo[3,4-d]pyrimidin-3-yl)phenyl)-3-(4-(perfluorobutan-2-yl)phenyl)urea]
- binding to wild-type RET and RET^M918T, in words [1]: more potent than 43 on wild-type and mutant RET
- binding to wild-type RET and RET^M918T, in words ([1]; listed as 8-6-2): highly potent on both wild-type and RET^M918T
- binding profile / selectivity across the kinome, in words [1]: generally promiscuous KI
- binding profile / selectivity across the kinome, in words ([1]; listed as 8-6-2): overall selectivity profile in between 4-9-8 and 8-82-1
- rescue activity in the fly model, in words (ptc>dRet^M955T flies): one of the highest rescues in the MTC fly assay; also recorded: exceptional in vivo activity
- rescue (percent viability of adult flies, adults/pupae×100) (ptc>dRet^M955T flies; baseline viability 0%, listed as 65): 99%
- cellular IC50 against RET, ranking in words (RET (WT and M918T)): highest IC50 values

SMILES: CC(C)n1nc(-c2ccc(NC(=O)Nc3ccc(C(F)(C(F)(F)F)C(F)(F)F)cc3)cc2)c2c(N)ncnc21 [APS-8-50-3, 1-(4-(4-Amino-1-isopropyl-1H-pyrazolo[3,4-d]pyrimidin-3-yl)phenyl)-3-(4-(perfluoropropan-2-yl)phenyl)urea]
- ranking by inhibition of cell proliferation, SR model [2]: top ten

SMILES: COc1ccc(CN2C3CC2CN(c2ccc(-c4cc(OCC(C)(C)O)cn5ncc(C#N)c45)cn2)C3)cn1 [Loxo292, reference compound]
- cellular IC50 wild-type RET versus M918T mutant, in words (RET (WT and M918T)): slightly lower IC50 values towards wild-type RET over the M918T mutant

SMILES: CNC(=O)c1cc(Oc2ccc(NC(=O)Nc3ccc(Cl)c(C(F)(F)F)c3)c(F)c2)ccn1 [regorafenib, reference compound]
- cellular IC50 wild-type RET versus M918T mutant, in words (RET (WT and M918T)): slightly lower IC50 values towards wild-type RET over the M918T mutant

SMILES: CC(C)n1nc(-c2ccc(NC(=O)Nc3ccc(C(F)(F)C(F)(F)F)cc3)cc2)c2c(N)ncnc21 [APS-8-100-3, 1-(4-(4-Amino-1-isopropyl-1H-pyrazolo[3,4-d]pyrimidin-3-yl)phenyl)-3-(4-(perfluoroethyl)phenyl)urea]
- rescue activity in the fly model, in words (ptc>dRet^M955T flies): exceptional in vivo activity
- rescue (percent viability of adult flies, adults/pupae×100) (ptc>dRet^M955T flies; baseline viability 0%): 100%
- ranking by inhibition of cell proliferation, BC model [3]: top ten
- cellular IC50 against RET, ranking in words (RET (WT and M918T)): lowest IC50 values among the para-substituted compounds tested

SMILES: CC(C)n1cc(-c2ccc(NC(=O)Nc3cc(C(F)(F)C(F)(F)F)ccc3F)cc2)c2c(N)ncnc21 [APS-7-38, 1-(4-(4-Amino-7-isopropyl-7H-pyrrolo[2,3-d]pyrimidin-5-yl)phenyl)-3-(2-fluoro-5-(perfluoroethyl)phenyl)urea]
- ranking by inhibition of cell proliferation, BC model [3]: top ten

SMILES: CC(C)n1nc(-c2ccc(NC(=O)Nc3cccc(C(F)(F)C(F)(F)C(F)(F)C(F)(F)F)c3)cc2)c2c(N)ncnc21 [APS-7-46-2, 1-(4-(4-Amino-1-isopropyl-1H-pyrazolo[3,4-d]pyrimidin-3-yl)phenyl)-3-(3-(perfluorobutyl)phenyl)urea]
- rescue (percent viability of adult flies, adults/pupae×100) (ptc>dRet^M955T flies; baseline viability 0%): over 80%

SMILES: CC(C)n1cc(-c2ccc(NC(=O)Nc3cc(C(F)(C(F)(F)F)C(F)(F)F)ccc3F)cc2)c2c(N)ncnc21 [APS-7-25-2, 1-(4-(4-Amino-7-isopropyl-7H-pyrrolo[2,3-d]pyrimidin-5-yl)phenyl)-3-(2-fluoro-5-(perfluoropropan-2-yl)phenyl)urea]
- ranking by inhibition of cell proliferation, BC model [3]: top ten

SMILES: CC(C)n1cc(-c2ccc(NC(=O)Nc3ccc(C(F)(C(F)(F)F)C(F)(F)F)cc3)cc2)c2c(N)ncnc21 [APS-8-50-4, 1-(4-(4-Amino-7-isopropyl-7H-pyrrolo[2,3-d]pyrimidin-5-yl)phenyl)-3-(4-(perfluoropropan-2-yl)phenyl)urea]
- ranking by inhibition of cell proliferation, BC model [3]: top ten
- ranking by inhibition of cell proliferation, SR model [2]: top ten

SMILES: CC(C)n1cc(-c2ccc(NC(=O)Nc3cccc(C(F)(F)C(F)(F)C(F)(F)F)c3)cc2)c2c(N)ncnc21.O=C(O)C(F)(F)F [APS-7-52-2, 1-(4-(4-Amino-7-isopropyl-7H-pyrrolo[2,3-d]pyrimidin-5-yl)phenyl)-3-(3-(perfluoropropyl)phenyl)urea 2,2,2-trifluoroacetate]
- ranking by inhibition of cell proliferation, SR model [2]: top ten

SMILES: CO[C@]1(C(=O)N[C@@H](C)c2ccc(-n3cc(F)cn3)nc2)CC[C@H](c2nc(C)cc(Nc3cc(C)[nH]n3)n2)CC1 [Blu667, reference compound]
- cellular IC50 wild-type RET versus M918T mutant, in words (RET (WT and M918T)): slightly lower IC50 values towards wild-type RET over the M918T mutant

SMILES: CC(C)n1nc(-c2ccc(NC(=O)Nc3cc(C(F)(F)C(F)(F)F)ccc3F)cc2)c2c(N)ncnc21 [APS-5-86-2, 1-(4-(4-Amino-1-isopropyl-1H-pyrazolo[3,4-d]pyrimidin-3-yl)phenyl)-3-(2-fluoro-5-(perfluoroethyl)phenyl)urea]
- rescue (percent viability of adult flies, adults/pupae×100) (ptc>dRet^M955T flies; baseline viability 0%): 92%
- cellular IC50 wild-type RET versus M918T mutant, in words (RET (WT and M918T)): not observed

SMILES: CC(C)n1nc(-c2ccc(NC(=O)Nc3ccc(C(F)(F)C(F)(F)C(F)(F)C(F)(F)F)cc3)cc2)c2c(N)ncnc21 [APS-8-52-3, 1-(4-(4-Amino-1-isopropyl-1H-pyrazolo[3,4-d]pyrimidin-3-yl)phenyl)-3-(4-(perfluorobutyl)phenyl)urea]
- ranking by inhibition of cell proliferation, BC model [3]: top ten
- ranking by inhibition of cell proliferation, SR model [2]: top ten

SMILES: CC(C)n1nc(-c2ccc(NC(=O)Nc3cccc(C(F)(C(F)(F)F)C(F)(F)C(F)(F)F)c3)cc2)c2c(N)ncnc21 (stereo not drawn) [APS-8-56-3, 1-(4-(4-Amino-1-isopropyl-1H-pyrazolo[3,4-d]pyrimidin-3-yl)phenyl)-3-(3-(perfluorobutan-2-yl)phenyl)urea 2,2,2-trifluoroacetate]
- cellular IC50 against RET, ranking in words (RET (WT and M918T)): highest IC50 values

SMILES: CC(C)n1nc(-c2ccc(NC(=O)Nc3cccc(C(F)(F)C(F)(F)C(F)(F)F)c3)cc2)c2c(N)ncnc21.O=C(O)C(F)(F)F [APS-7-52-1, 1-(4-(4-Amino-1-isopropyl-1H-pyrazolo[3,4-d]pyrimidin-3-yl)phenyl)-3-(3-(perfluoropropyl)phenyl)urea 2,2,2-trifluoroacetate]
- ranking by inhibition of cell proliferation, SR model [2]: top ten

SMILES: CC(C)n1cc(-c2ccc(NC(=O)Nc3ccc(C(F)(F)C(F)(F)C(F)(F)C(F)(F)F)cc3)cc2)c2c(N)ncnc21 [APS-8-52-4, 1-(4-(4-Amino-7-isopropyl-7H-pyrrolo[2,3-d]pyrimidin-5-yl)phenyl)-3-(4-(perfluorobutyl)phenyl)urea]
- ranking by inhibition of cell proliferation, BC model [3]: top ten
- ranking by inhibition of cell proliferation, SR model [2]: top ten

SMILES: CC(C)n1cc(-c2ccc(NC(=O)Nc3ccc(C(F)(C(F)(F)F)C(F)(F)C(F)(F)F)cc3)cc2)c2c(N)ncnc21 (stereo not drawn) [APS-8-82-2, 1-(4-(4-Amino-7-isopropyl-7H-pyrrolo[2,3-d]pyrimidin-5-yl)phenyl)-3-(4-(perfluorobutan-2-yl)phenyl)urea 2,2,2-trifluoroacetate]
- rescue activity in the fly model, in words (ptc>dRet^M955T flies): exceptional in vivo activity
- rescue (percent viability of adult flies, adults/pupae×100) (ptc>dRet^M955T flies; baseline viability 0%, 2,2,2-trifluoroacetate): 100%
- cellular IC50 against RET, ranking in words (RET (WT and M918T)): highest IC50 values
